Assay results as given in patent US20190071416A1, “COMPOUNDS FOR TREATMENT OF CANCER AND EPIGENETICS” (Agency For Science, Technology and Research, priority 2015, published 2019).

How the values were obtained:
HepG2 = assay: Cell proliferation assay (CellTiter-Glo), HepG2; format: cell-based; settings: Homo sapiens, HepG2, 72 h; 3 days
Description: (§1) The cell proliferation assays were tested in several cell lines, including HepG2,HCT116, A549, HPAF-II, CFPAC-1,HuH7, SNU398,Hep3B, and HEK293. All cell lines are from ATCC. HepG2, HPAF-II and HEK293 are cultured in Eagle's MEM media supplemented with fetal bovine serum. HCT116 is cultured in McCoy media supplemented with fetal bovine serum. Huh-7 is cultured in DMEM low glucose (1000 mg/L glucose) with 10% FBS, 1% L-Glutamate and 1% Penicillin/Streptomycin. SNU398 is cultured in RPMI with 10% FBS with 1% L-Glutamate and 1% Penicillin/Streptomycin. Hep3B is cultured in Eagle's MEM with 10% FBS, 1% L-Glutamate and 1% Penicillin/Streptomycin. A549 is cultured in RPMI media supplemented with fetal bovine serum while CFPAC-1 is cultured in IMDM media supplemented with fetal bovine serum. All media and serum are purchased from Gibco (Lifetech). All cells were grown in a temperature controlled incubator at 37° C. and 5% CO2.
(§2) Cell proliferation assay was performed using CellTiter-Glo Luminescent Cell Viability Assay (Promega) following manufacturer's instructions. The cell-line of interest was treated with compounds that were serial diluted in its respective media. Plates were incubated for 3 days at 37° C. in 5% CO2. After 3 days, an equal volume of Cell Titer Glo reagent was added. Plates were rocked on a rotator for 2 h. 100 μL of each well were transferred to a 96-well opaque plate, and luminescence emitted was measured with the Tecan Safire II.

HCT-116 = assay: Cell proliferation assay (CellTiter-Glo), HCT-116; format: cell-based; settings: Homo sapiens, HCT-116, 72 h; 3 days
Description: as §1, §2

A549 = assay: Cell proliferation assay (CellTiter-Glo), A549; format: cell-based; settings: Homo sapiens, A549, 72 h; 3 days
Description: as §1, §2

[1] = tested on: MAP3K2 methylation (me2/me3-Lys 260); assay: SMYD3 mediated methylation of MAP3K2 in HEK293 cells (Western blot); format: cell-based, Human; settings: 25 μM
Description: (§3) The cells were seeded in 6 well plates. After seeding for 24 h, the cells were treated with either DMSO or 25 μM compound and incubated for 24 hr. The cells were trypsinized and the lysate was extracted with RIPA buffer (Santa Cruz). The total protein concentration of lysate is quantified using the standard Bradford assay (Biorad protein assay, microplate standard assay).
Western blot analysis for detecting methylated MAP3K2 was carried out using a customized Anti-me2/me3-Lys 260 MAP3K2 at 1:500 and the total MAP3K2 was detected using Anti-MEKK2 (AB33918) using a 1:10,000 dilution.
B019 was further tested for its ability to inhibit SMYD3 in cells through its effects on cellular MAP3K2 methylation. This was performed using an antibody against the MAP3K2 (me2/me3), Anti-ME2/ME3-K260-MAP3K2 (1:500) and total MAP3K2, Anti-MEKK2 #ab33918 (1:10,000).

SMYD3 = target: T1, SMYD3 (Homo sapiens, UniProt Q9H7B4); assay: Target engagement assay, SMYD3 levels by Western blot in HEK293 cells transfected with Myc-SMYD3; format: cell-based; set-up: host or cells: HEK293 (ATCC); settings: 25 μM, overnight, HEK293 transiently transfected with Myc-tagged SMYD3
T1 sequence (Q9H7B4 1-428): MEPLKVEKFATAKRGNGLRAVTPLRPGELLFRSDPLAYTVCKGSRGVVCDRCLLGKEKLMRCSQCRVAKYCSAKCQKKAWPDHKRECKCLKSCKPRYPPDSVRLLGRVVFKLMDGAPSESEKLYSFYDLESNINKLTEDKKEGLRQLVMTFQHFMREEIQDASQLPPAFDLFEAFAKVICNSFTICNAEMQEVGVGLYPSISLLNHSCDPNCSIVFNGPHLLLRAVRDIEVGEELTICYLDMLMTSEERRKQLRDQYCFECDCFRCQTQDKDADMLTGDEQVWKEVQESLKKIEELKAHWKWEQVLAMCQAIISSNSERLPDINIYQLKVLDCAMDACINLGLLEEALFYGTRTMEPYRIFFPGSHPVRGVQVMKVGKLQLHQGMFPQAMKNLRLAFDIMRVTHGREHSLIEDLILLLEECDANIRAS
Description: The target engagement assay was performed with HEK293 that is engineered to overexpress SMYD3 (HEK293-SMYD3). The plasmid SMYD3 (Myc-DDK-tagged-Human SET and MYND domain containing 3) was purchased from Origene (RC230064) and transfected with lipofectamine 2000 (Invitrogen) into HEK293 (ATCC). The cell line is cultured in Eagle's MEM media supplemented with fetal bovine serum and geneticin (Invitrogen). Presence of over-expressed SMYD3 is confirmed with western blot with antibody against SMYD3 and the MYC tag as well as with RT-PCR with SMYD3 primers.
as §3
Western blot analysis was performed using antibody against SMYD3 in HEK293 cells over-expressing SMYD3 (HEK293-SMYD3) treated with compound at different time points. 15.0 μg of cell lysate was diluted in 2× Laemmli sample buffer (Bio-Rad) and boiled at 100° C. on heat block for 5 min. Lysates were separated using NuPAGE® 4-12% Bis-Tris precast polyacrylamide gels (Lifetech) at 200 V, […] for 40 min. […]

GI50 (HepG2): 18.9 µM
GI50 (HCT-116): 17.9 µM
GI50 (A549): 28.8 µM
reduction in SMYD3 levels (SMYD3): 35-37%
SMILES: CCCOC(=O)N1CCN(C(=O)c2ccc3c(Cl)cc(-c4ccccc4)nc3c2)C[C@H]1C [B019, Propyl (R)-4-(4-chloro-2-phenylquinoline-7-carbonyl)-2-methylpiperazine-1-carboxylate]
inhibition of methylation of MAP3K2 in cells [1]: inhibited
total MAP3K2 levels [1]: without changing
